Results on 42 compounds are retold here after patent US20090105218A1, “CRTH2 Receptor Ligands For Therapeutic Use” (7TM PHARMA A/S, priority 2004, published 2009).

In this assay the target is T1, human CRTH2 receptor (Homo sapiens, UniProt Q9Y5Y4, V204A).
T1 construct: expressed in transfected cells; host or cells: COS-7 (transient transfection)
T1 sequence (Q9Y5Y4 1-395 V204A): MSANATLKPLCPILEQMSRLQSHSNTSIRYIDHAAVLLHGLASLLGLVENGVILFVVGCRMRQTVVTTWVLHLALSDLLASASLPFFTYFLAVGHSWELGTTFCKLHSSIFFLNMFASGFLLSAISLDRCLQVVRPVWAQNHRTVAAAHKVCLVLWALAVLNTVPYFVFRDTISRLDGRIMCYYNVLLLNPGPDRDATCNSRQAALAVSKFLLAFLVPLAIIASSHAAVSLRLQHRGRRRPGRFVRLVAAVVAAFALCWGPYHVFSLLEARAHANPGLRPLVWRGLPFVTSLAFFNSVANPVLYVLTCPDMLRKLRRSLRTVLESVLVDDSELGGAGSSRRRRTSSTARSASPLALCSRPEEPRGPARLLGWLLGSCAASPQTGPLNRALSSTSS
Put plainly: CRTH2 receptor binding assay ([3H]PGD2 competition on whole transfected cells). To be noted: competition binding with 0.1 nM [3H]PGD2, whole cells expressing CRTH2, 3 h at 4° C. From the text:
Generation/origin of the cDNA Constructs. The coding sequence of the human CRTH2 receptor (genbank accession no NM_004778) was amplified by PCR from a human hippocampus cDNA library and inserted into the pcDNA3.1(+) expression vector (invitrogen) via 5′ HindIII and 3′ EcoRI. The sequence identity of the construct was verified by restriction endonuclease digests and sequencing in both directions on an ABI Prism (Applied Biosystems, Foster City, Calif.).
Cell Culture and Transfection. COS-7 cells were grown in Dulbecco's modified Eagle's medium (DMEM) 1885 supplemented with 10% fetal bovine serum, 100 units/ml penicillin, […] streptomycin, and kept at 37° C. in a 10% CO2 atmosphere. HEK293 cells were maintained in Minimum Essential medium (MEM) supplemented with 10% (v/v) heat inactivated fetal calf serum (HIFCS), 2 mM Glutamax™-I, 1% non essential amino acids (NEAA), 1% sodium pyruvate and 10 μg/ml gentamicin. For binding experiments, COS7 cells were transiently transfected with the CRTH2 receptor using a calcium phosphate-DNA coprecipitation method with the addition of chloroquine (as described by Holst B, Hastrup H, Raffetseder U, Martini L, Schwartz T W. J Biol. Chem. 2001 Jun. 8; 276(23):19793-9.)
Binding assay. 24 h after transfection COS-7 cells were seeded into 96 well plates at a density of 30.000 cells/well. Competition binding experiments on whole cells were then performed about 18-24 h later using 0.1 nM [^3H]PGD2 (NEN, 172 Ci/mmol) in a binding buffer consisting of HBSS (GIBCO) and 10 mM HEPES. Competing ligands were diluted in DMSO which was kept constant at 1% (v/v) of the final incubation volume. Total and nonspecific binding were determined in the absence and presence of 10 μM PGD2. Binding reactions were routinely conducted for 3 h at 4° C. and terminated by 2 washes (100 μl each) with ice cold binding buffer. Radioactivity was determined by liquid scintillation counting in a TOPCOUNTER (Packard) following over night incubation in Microscint 20. Stable HEK293 cells were seeded at a density of 30.000 cells/well 18-24 h prior to the binding assay which was performed essentially as described for COS7 cells above. Determinations were made in duplicates.
Curve analysis was performed with the GraphPadPrism software 3.0 (Graphpad Prism Inc., San Diego, USA) and IC50 values were calculated as a measure of the antagonistic potencies.
For `COc1cccc(OC)c1C(=O)Nc1cccc(C(=O)Nc2ccccc2C(=O)O)c1` [B38], the IC50 (as a rule, the concentration needed to halve the response being measured) lay within 500 to 5000 nM. Turning to `COc1ccc(OCC(=O)Nc2cccc(C(=O)Nc3ccccc3C(=O)O)c2)cc1` [B39], the IC50 fell in the range of 500 to 5000 nM. Take `CCCOc1ccc(C(=O)Nc2cccc(C(=O)Nc3ccccc3C(=O)O)c2)cc1` [B40]: the IC50 is under 500 nM. Consider `CCCOc1cccc(C(=O)Nc2cccc(C(=O)Nc3ccccc3C(=O)O)c2)c1` [B41], for which the IC50 was under 500 nM. In the case of `O=C(CSCc1ccccc1)Nc1cccc(C(=O)Nc2ccccc2C(=O)O)c1` [B42], the half-inhibitory concentration (IC50) was under 500 nM. Consider `O=C(Nc1cccc(C(=O)Nc2ccccc2C(=O)O)c1)c1ccc(I)cc1` [B43], for which the IC50 was under 500 nM.

For the compound `O=C(Nc1ccc(O)cc1C(=O)O)c1cccc(NC(=O)c2ccco2)c1` [B44], the IC50 lay in the range of 500 to 5000 nM. For `O=C(Nc1ccc(C(=O)Nc2ccccc2C(=O)O)cc1)c1ccc(Br)cc1` [B45], the IC50 was 500 to 5000 nM. In the case of `Cc1ccc(NS(=O)(=O)c2cccc(C(=O)Nc3ccccc3C(=O)O)c2)cc1` [B46], the concentration for half-maximal inhibition (IC50) lay within 500 to 5000 nM. Compound `O=C(Nc1ccccc1C(=O)O)c1cccc(S(=O)(=O)Nc2ccccc2)c1` [B47] came in with an IC50 of 500 to 5000 nM. As for `COc1ccc(NS(=O)(=O)c2cccc(C(=O)Nc3ccccc3C(=O)O)c2)cc1` [B48], the IC50 was 500 to 5000 nM. Take `O=C(Nc1ccccc1C(=O)O)c1ccc(Br)c(S(=O)(=O)NCc2ccccc2)c1` [B50]: the half-inhibitory concentration (IC50) is 500 to 5000 nM.

`COc1ccc(NS(=O)(=O)c2cc(C(=O)Nc3ccccc3C(=O)O)ccc2C)cc1` [B51] displayed a half-inhibitory concentration (IC50) of 500 to 5000 nM. Compound `Cc1ccc(C(=O)Nc2ccccc2C(=O)O)cc1S(=O)(=O)Nc1ccc(Br)cc1` [B52] returned an IC50 of under 500 nM. As to `Cc1ccccc1NS(=O)(=O)c1cccc(C(=O)Nc2ccccc2C(=O)O)c1` [B53], the concentration for half-maximal inhibition (IC50) was 500 to 5000 nM.

Regarding `O=C(Nc1ccccc1C(=O)O)c1ccc(Br)c(S(=O)(=O)Nc2ccc(Br)cc2)c1` [B54], the IC50 is under 500 nM. In turn, `O=C(Nc1ccccc1C(=O)O)c1cccc(S(=O)(=O)Nc2ccc(Br)cc2)c1` [B55] came in with an IC50 of under 500 nM. `Cc1cccc(NS(=O)(=O)c2ccc(Cl)c(C(=O)Nc3ccccc3C(=O)O)c2)c1` [B57] displayed a half-maximal inhibitory concentration (IC50) of 500 to 5000 nM. The same measure for `O=C(Nc1ccccc1C(=O)O)c1cc(S(=O)(=O)Nc2ccc(Br)cc2)ccc1Cl` [B58]: 500 to 5000 nM; for `Cc1ccc(C(=O)Nc2ccccc2C(=O)O)cc1S(=O)(=O)Nc1ccc(I)cc1` [B59]: under 500 nM. On to `COc1ccccc1NS(=O)(=O)c1cccc(C(=O)Nc2ccccc2C(=O)O)c1` [B60], for which the IC50 was 500 to 5000 nM. `CCOc1ccc(NS(=O)(=O)c2cccc(C(=O)Nc3ccccc3C(=O)O)c2)cc1` [B61] came in with an IC50 of 500 to 5000 nM. On to `Cc1ccc(C(=O)Nc2ccccc2C(=O)O)cc1S(=O)(=O)Nc1cccc(Cl)c1` [B62], for which the IC50 is under 500 nM. In turn, `Cc1ccc(C(=O)Nc2ccccc2C(=O)O)cc1S(=O)(=O)Nc1ccc(F)cc1` [B63] showed an IC50 of 500 to 5000 nM. Consider `CCOc1ccc(NS(=O)(=O)c2cc(C(=O)Nc3ccccc3C(=O)O)ccc2C)cc1` [B64], for which the half-maximal inhibitory concentration (IC50) was 500 to 5000 nM.

Take `CC(=O)c1ccc(NS(=O)(=O)c2cc(C(=O)Nc3ccccc3C(=O)O)ccc2C)cc1` [B65]: the IC50 was over 5000 nM. On to `O=C(Nc1ccccc1C(=O)O)c1cccc(S(=O)(=O)NC2CCCCC2)c1` [B66], for which the 50% inhibitory concentration (IC50) lay in the range of 500 to 5000 nM. Take `O=C(Nc1ccccc1C(=O)O)c1cc(S(=O)(=O)N2CCOCC2)ccc1Cl` [B67]: the concentration for half-maximal inhibition (IC50) is over 5000 nM.

`O=C(Nc1ccccc1C(=O)O)c1cccc(S(=O)(=O)N2CCOCC2)c1` [B68]: the IC50 was over 5000 nM. For `CCN(CC)S(=O)(=O)c1cc(C(=O)Nc2ccccc2C(=O)O)ccc1Br` [B69] the value was 500 to 5000 nM. As to `O=C(Nc1ccccc1C(=O)O)c1cc(S(=O)(=O)N2CCCCC2)c(Cl)cc1Cl` [B70], the IC50 was under 500 nM.

The compound `Cc1ccc(C(=O)Nc2ccccc2C(=O)O)cc1S(=O)(=O)N1CCOCC1` [B71] registered a half-maximal inhibitory concentration (IC50) of 500 to 5000 nM.

With `Cc1ccc(C(=O)Nc2ccccc2C(=O)O)cc1S(=O)(=O)N1CCCCC1` [B72], the half-inhibitory concentration (IC50) was under 500 nM. In turn, `Cc1ccc(C(=O)Nc2ccccc2C(=O)O)cc1S(=O)(=O)NC1CCCCC1` [B73] registered a concentration for half-maximal inhibition (IC50) of 500 to 5000 nM. Compound `O=C(Nc1ccccc1C(=O)O)c1cccc(S(=O)(=O)N2CCCC2)c1` [B74] yielded a half-inhibitory concentration (IC50) of over 5000 nM. Compound `Cc1ccc(C(=O)Nc2ccccc2C(=O)O)cc1S(=O)(=O)N1CCCCCC1` [B75] showed an IC50 of 500 to 5000 nM. For `CCN(CC)S(=O)(=O)c1cc(C(=O)Nc2ccccc2C(=O)O)ccc1OC` [B76] the value was 500 to 5000 nM; for `O=C(Nc1ccccc1C(=O)O)c1cc(S(=O)(=O)N2CCCCCC2)ccc1Cl` [B77], 500 to 5000 nM; for `Cc1ccc(S(=O)(=O)N2CCOCC2)cc1C(=O)Nc1ccccc1C(=O)O` [B78], over 5000 nM. For `O=C(Nc1ccccc1C(=O)O)c1cc(S(=O)(=O)N2CCCC2)ccc1Cl` [B79] the value was 500 to 5000 nM; for `O=C(Nc1ccccc1C(=O)O)c1cc(S(=O)(=O)N2CCCC2)c(Cl)cc1Cl` [B80], 500 to 5000 nM. `O=C(Nc1ccccc1C(=O)O)c1cccc(S(=O)(=O)N2CCCCC2)c1` [B81]: the IC50 lay in the range of 500 to 5000 nM.
